“Also recorded” adds a separate entry of the source.
Columns and labels:
beagle dogs = test: Cardiovascular effect in conscious telemetered beagle dogs (GLP); type: in vivo, dog; conditions: oral, 30, 90, 150 mg/kg
Method: The effects of SRP-001 on hERG current amplitude at physiologic temperatures were evaluated over a nominal concentration range of 0.1 μM to […]. A vehicle group (10% DMSO) was included in the study for comparison, and dofetilide (10 nM) was used as a reference substance. The vehicle and positive controls indicated appropriate sensitivity of the test systems. […] Next, the potential acute effects of oral SRP-001 on cardiovascular function in conscious telemetered beagle dogs was done using a Latin Square design; 4 male naïve beagle dogs each received vehicle (10% DMSO: 10% labrasol: 80% PEG400) and three doses (30, 90, and 150 mg/kg) of SRP-001 nanosuspension by oral gavage. […] A single dose was administered on the day of dosing, and a washout period of seven days was allowed between doses. One-min means of hemodynamic parameters, as well as ECG parameters and body temperature, were measured for a period of at least 24 h. One-min tracings of the ECGs were obtained at 15 min prior to dosing and at 30 min, 1, 2, 4, 8, 12, and 24 h post-dose. Qualitative evaluation of the ECGs was done by a board-certified veterinary cardiologist.

male Sprague–Dawley rats = test: Neuropharmacological profile, modified Irwin/Functional Observational Battery (GLP); type: in vivo; conditions: for Body temperature versus vehicle: 1 h post-dose
Method: Any potential neuropharmacological effects of orally administered SRP-001 in rats were assessed in three groups of eight male Sprague–Dawley rats. Each was orally administered SRP-001 at a single dose of 220, 440, or 660 mg/kg. Vehicle (10% labrasol: 10% DMSO: 80% PEG400) was administered to an additional group of eight rats. The dose volume was 10 mL/kg. […] All observations were made at ± 5 min for the observations through 1 h post-dose and ± 15 min for the later observations. Body temperature was measured 1 h following dose administration.

[1] = test system: Peripheral blood reticulocytes; test: In vivo mammalian micronucleus assay; design: species or system rats
Method: Male rats were dosed at 500, 1000, and 2000 mg/kg/d once per day on two consecutive days at 10 mL/kg via oral gavage using 10% labrasol, 10% DMSO, and 80% PEG400 as the vehicle (Bioreliance, Rockville, MD USA). Approximately 48 h after the second dose administration, peripheral blood was collected for flow cytometric analysis of micronuclei. There was no significant increase in the incidence of micronuclei in the test article-dosed animals compared to the concurrent vehicle control. The vehicle control value was compatible with the historical range of % micronucleated reticulocytes (MnRETs). There was a statistically significant increase in MnRETs in the positive control compared to the concurrent vehicle control.

[2] = Stability of API and oral nanosuspension; type: physicochemical
Method: The drug therapeutic candidate is manufactured in a two-step process (Latitude Pharmaceuticals, Inc., San Diego, CA, USA). First, SRP-001 is jet milled. Second, the milled API is dispersed in a solution comprising 1% hydroxypropyl cellulose (1% HPC) and sterile water for injection and subjected to wet milling. The target particle size is approximately D90 0.15 μm. […] An oral nanoparticle suspension containing 100 mg/mL SRP-001 in aqueous 1% HPC preserved with 0.1% sodium benzoate was manufactured for use in nonclinical studies as Lot LPI2021028 and stored at 5 °C ± 3 °C. […] The same formulation as above was manufactured under cGMP for use in clinical studies as Lot LPI2021031 and stored at 5 °C ± 3 °C. […] This lot has been placed on stability at 5 °C, 25 °C/60%RH, and 40 °C/75%RH. Finally, an appearance-matched placebo consisting of 2% microcrystalline cellulose in aqueous 1% HPC preserved with 0.1% sodium benzoate and 0.05% EDTA disodium dihydrate was manufactured under cGMP for use in clinical studies. The above oral suspensions were manufactured by Latitude Pharmaceuticals Inc. (San Diego, CA, USA).

[3] = test system: FAAH, CORO2A, and RPL7L1 expression; test: Single-cell RNA sequencing of midbrain PAG in the CFA model; type: in vivo; conditions: 100 mg/kg, 1 h, CFA rats
Method: Subsequently, we endeavored to explore the single-cell transcriptome of the eVF rat mid-brain PAG region to further define the mechanisms of action (MOA) of chronic inflammatory pain and, ultimately, SRP-001- and ApAP-mediated pain modulation. Left hind paws of Sprague Dawley rats were injected with 150 µl of 50% complete Freund’s adjuvant (CFA), freshly diluted with sterile saline on the day of administration, to induce conspicuous long-standing inflammatory pain in the rats’ hind paws, along with mechanical hyperalgesia tested using eVF.to induce local inflammation and a chronic pain state. We dosed the rats with ApAP or SRP-001 (100 mg/kg), and after 1 h, they were euthanized to dissect the PAG from flash-frozen brains for 10xGenomics single-nuclei RNA library preparation (Fig. 4a).
For cell nuclei isolation from the midbrain PAG, they were flash-frozen, dissected (by a cryotome), minced into small pieces, homogenized, filtered through 70 μ strainer and centrifuged. ReadiDrop 7-AAD cell viability dye (Bio-Rad) added, and flow sorted the live (7-AAD positive) nuclei in a BioRad Cell Sorter S3e using purity mode. Nuclei were counted using Nexcelom automated Cellometer with acridine orange/propidium iodide (AOPI) stain, and the Nuclei Stock Concentration used so that 10,000 nuclei could be targeted for each sample. […]

CCN(CC)C(=O)c1ccccc1S(=O)(=O)NCC(=O)Nc1ccc(O)cc1 [SRP-001, N,N-diethyl-2-[[2-(4-hydroxyanilino)-2-oxo-ethyl]sulfamoyl]benzamide]
Cardiovascular findings (blood pressure, heart rate, ECG, body temperature) (beagle dogs): did not induce any biologically relevant effects; also recorded: No significant findings
Body temperature versus vehicle (male Sprague–Dawley rats; 220 or 440 mg/kg): not affected
Body temperature versus vehicle (male Sprague–Dawley rats; high-dose group (660 mg/kg)): significantly (p ≤ 0.05) lower; also recorded: lower body temperature; also recorded: Decreased body temp
Neuropharmacological or clinical signs (male Sprague–Dawley rats; oral, 220, 440, 660 mg/kg, through 24 h post-dose): No apparent neuropharmacological or clinical signs; also recorded: No apparent neuropharmacological effects
Micronucleus assay result ([1]; 500, 1000, 2000 mg/kg/day, 2 days, oral gavage): negative (non-clastogenic); also recorded: Under the conditions of this study, the administration of SRP-001 at doses up to and including a dose of 2000 mg/kg/day was concluded to be negative in the Micronucleus assay
% RETs (reticulocytes) ([1]; treatment groups versus vehicle): Statistically significant decreases
Stability of the API ([2]; 25 °C/60%RH): at least 9 months
Stability of the API ([2]; 40 °C/75%RH): ≥ 6 months
Expression of FAAH, CORO2A, and RPL7L1 in PAG (scRNAseq) [3]: Downregulation
